Experiments:
Caco-2 transport study = format: in vitro ADME; parameters: Caco-2 Papp: unit not given here; settings: human, Caco-2 monolayer
Protocol: (§1) Caco-2 Cells from passage 38 were applied to the transport experiments. Cells were seeded on polycarbonate filters (12 mm diameter, pore size 0.4 μm). The cell monolayers were used 21 days post seeding. Buagafuran was dissolved in DMSO. It was further diluted to 50 μM with HBSS. The final buagafuran concentration was 50 μM. For absorptive (AP→BL) permeability test, drug solution (0.4 mL) was added to the apical chamber. For secretive (BL→AP) permeability experiments, drug solution (0.6 mL) was added to the basolateral chamber, then 50 μL samples (n = 3) were withdrawn from receiver chamber at specified times and 50 μL fresh buffer was added in the receiver chamber. The experiments were carried out in triplicate at 4 time points.
(§2) Transport of buagafuran was tested using a linear model. The regression line was validated by inspection with naked eye and the value of correlation coefficient was R > 0.9. The apparent permeability coefficient (Papp) was calculated by the formula Papp = (ΔQ/Δt)/ACo, where ΔQ/Δt is the transport rate (nmol/s), which remained approximately constant in time, A is the well membrane area (0.6 cm^2), and Co is the initial concentration of buagafuran (μM). The efflux rate (ER) was the ratio of the Papp from the basolateral to apical cells versus the Papp from the apical to basolateral cells. Transport of the tested drug is linear over the incubation times of 30–120 min.

Caco-2 cells = assay: Caco-2 transport study; format: in vitro ADME; parameters: Caco-2 Papp: unit not given here; settings: PBPK input parameter; 50 μM
Protocol: as §1, §2

[1] = PBPK simulation in rat (GastroPlus)
Excerpt: GastroPlus^TM software (version 8.5) was used to perform all simulations, (Simulations Plus, Inc., Lancaster, CA, United States). The absorption of oral formulations from the GI tract was modeled by the advanced compartmental absorption and transit (ACAT^TM) model implemented in GastroPlus ([Agoram et al., 2001]; [Kuentz et al., 2006]; [Huang et al., 2009]; [Zhang et al., 2011]). Input parameters in the ACAT model include three groups: formulation properties, physicochemical properties and pharmacokinetic parameters. […] The immediate release (IR) suspension for rat and IR capsule for human were selected for simulation of buagafuran in GastroPlus^TM. The ACAT model consists of nine compartments that mimic the GI tract. Each GI tract has an associated ASF. ASF is the multiplier used to scale the permeability to account for different surface-to-volume ratios, pH effects, transporter differences, and other factors that affect absorption between different compartments ([Zhang et al., 2011]). Four coefficients C1–C4 are used to calculate ASF. And there are eight basic ASF models in version 8.5. […]
The pharmacokinetic parameters of unbound fraction in plasma (FUp) were experimentally measured values. […]

[2] = Biopharmaceutical classification system (BCS); format: physicochemical
healthy volunteers = settings: cited from earlier work
[3] = parameters: method as in Chen X. et al., 2013; settings: clinical data; ref Chen X. et al., 2013; cited from earlier work

## CCCCC1=CCC[C@@]2(C)CC[C@@H]3C[C@]12OC3(C)C [buagafuran]
Caco-2 transport study; read-out: apparent permeability coefficient (AP to BL)
  Papp A→B at 50 μM: 195 ×10⁻⁶ cm/s
Caco-2 transport study; read-out: apparent permeability coefficient (BL to AP)
  Papp B→A at 50 μM: 438 ×10⁻⁶ cm/s
Caco-2 cells
  Caco-2 Papp: 19.5 × 10^-5
[1]; brain, oral, optimized by parameter sensitivity analysis, also used for human simulation
  Kp: 6.7
[1]; optimized by comparing fitting with observed PK data
  input (refined) CLhep: 36.8 mL/min/kg
[2]
  biopharmaceutical classification system (BCS) class: Class II
Healthy volunteers; healthy volunteers, phase I, ref Wang et al., 2011, Chen X. et al., 2013, Yang et al.
  well tolerated multiple doses: up to 120 mg twice daily
Healthy volunteers; phase I trials, ref Zhang, 1997, Li et al., 2001
  most common side effect: drowsiness
[3]
  urine excretion of the dose administered: less than 1%
